Experimental data: patent US12594276B2, “Inhibitors of human immunodeficiency virus replication” (ViiV Healthcare UK (No.5) Limited, priority 2024, dated 2026)
Where two headings read alike, the source gives them in different places.

Key:
[1] = test system: recombinant NL4-3 virus (nef section replaced with Renilla luciferase gene) in MT-2 cells; assay: HIV cell culture assay (antiviral activity, luciferase readout); type: cell-based; conditions: Renilla, NL43, MT-2 cells infected for 4-5 days with recombinant NL4-3 Renilla luciferase virus
How it was run: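 Antiviral EC50 derived from luciferase signal using the exponential median effect equation. Infection of MT-2 cells ran 4-5 days alongside serial dilutions of compound, with virus generated by proviral clone transfection of 293T cells.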

[2] = Compound cytotoxicity, XTT-based colorimetric assay; type: cell-based; conditions: human
How it was run: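 CC50 derived from XTT colorimetric signal measured on day 4 in MT2 cells that were not infected. All other steps followed the antiviral assay protocol.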

[3] = uninfected MT2 cells, day 4, XTT, read-out: CC50

SMILES | EC50 [1] [nM] | CC50 at 4 days [2, 3] [nM] | CC50 at 4 days [2] [nM]
Cc1cc(C2(F)CCC(F)(F)CC2)nc2nc([C@H](Cc3cc(F)cc(F)c3)NC(=O)Cn3nc(C4CC4)c4c3C[C@@H]3C[C@H]43)n(-c3ccc(Cl)c4c(NS(C)(=O)=O)nn([C@H](C)CN5C[C@@H](C)O[C@@H](C)C5)c34)c(=O)c12 (relative stereo) [Example 730, N-[(1S)-1-[(3P)-3-{4-chloro-1-[(2R)-1-[(2R,6S)-2,6-dimethylmorpholin-4-yl]propan-2-yl]-3-methanesulfonamido-1H-indazol-7-yl}-5-methyl-4-oxo-7-(1,4,4-trifluorocyclohexyl)-3H,4H-pyrido[2,3-d]pyrimidin-2-yl]-2-(3,5-difluorophenyl)ethyl]-2-[(2R*,4R*)-9-cyclopropyl-7,8-diazatricyclo[4.3.0.0^2,^4]nona-1(6),8-dien-7-yl]acetamide] | 0.032 | > 20 | –
Cc1cc(C2CCC(F)(F)CC2)nc2nc([C@H](Cc3cc(F)cc(F)c3)NC(=O)Cn3nc(C(F)F)c4c3C(F)(F)[C@@H]3C[C@H]43)n(-c3ccc(Cl)c4c(NS(C)(=O)=O)nn(CCN5[C@@H]6CC[C@H]5CC(F)(F)C6)c34)c(=O)c12 (atropisomer, axis not shown; (P)) [Example 246, N-[(1S)-1-[(3P)-3-(4-chloro-1-{2-[(1R,5S)-3,3-difluoro-8-azabicyclo[3.2.1]octan-8-yl]ethyl}-3-methanesulfonamido-1H-indazol-7-yl)-7-(4,4-difluorocyclohexyl)-5-methyl-4-oxo-3H,4H-pyrido[2,3-d]pyrimidin-2-yl]-2-(3,5-difluorophenyl)ethyl]-2-[(2S,4R)-9-(difluoromethyl)-5,5-difluoro-7,8-diazatricyclo[4.3.0.0^2,^4]nona-1(6),8-dien-7-yl]acetamide] | 0.028 | – | > 50
CS(=O)(=O)Nc1nn(CCN2CCN(S(C)(=O)=O)CC2)c2c(-n3c([C@H](Cc4cc(F)cc(F)c4)NC(=O)Cn4nc(C5CC5)c5c4C[C@@H]4C[C@H]54)nc4nc(C5CCC(F)(F)CC5)ccc4c3=O)ccc(Cl)c12 (atropisomer, axis not shown; (P)) [Example 382, N-[(1S)-1-[(3P)-3-{4-chloro-3-methanesulfonamido-1-[2-(4-methanesulfonylpiperazin-1-yl)ethyl]-1H-indazol-7-yl}-7-(4,4-difluorocyclohexyl)-4-oxo-3H,4H-pyrido[2,3-d]pyrimidin-2-yl]-2-(3,5-difluorophenyl)ethyl]-2-[(2S,4S)-9-cyclopropyl-7,8-diazatricyclo[4.3.0.0^2,^4]nona-1(6),8-dien-7-yl]acetamide] | 0.037 | > 20 | –
Cc1cc(C2(F)CCC(F)(F)CC2)nc2nc([C@H](Cc3cc(F)cc(F)c3)NC(=O)Cn3nc(C(F)F)c4c3C(F)(F)[C@@H]3C[C@H]43)n(-c3ccc(Cl)c4c(NS(C)(=O)=O)nn(CCN5CCO[C@H](C(C)C)C5)c34)c(=O)c12 (atropisomer, axis not shown; (P)) [Example 575, N-[(1S)-1-[(3P)-3-(4-chloro-3-methanesulfonamido-1-{2-[(2R)-2-(propan-2-yl)morpholin-4-yl]ethyl}-1H-indazol-7-yl)-5-methyl-4-oxo-7-(1,4,4-trifluorocyclohexyl)-3H,4H-pyrido[2,3-d]pyrimidin-2-yl]-2-(3,5-difluorophenyl)ethyl]-2-[(2S,4R)-9-(difluoromethyl)-5,5-difluoro-7,8-diazatricyclo[4.3.0.0^2,^4]nona-1(6),8-dien-7-yl]acetamide] | 0.012 | > 20 | –
C[C@H](O)c1cc(C2CCC(F)(F)CC2)nc2nc([C@H](Cc3cc(F)cc(F)c3)NC(=O)Cn3nc(C(F)F)c4c3C(F)(F)[C@@H]3C[C@H]43)n(-c3ccc(Cl)c4c(NS(C)(=O)=O)nn(CCN5CCC(F)(F)CC5)c34)c(=O)c12 (relative stereo) [Example 698, N-[(1S)-1-[(3P)-3-{4-chloro-1-[2-(4,4-difluoropiperidin-1-yl)ethyl]-3-methanesulfonamido-1H-indazol-7-yl}-7-(4,4-difluorocyclohexyl)-5-[(1R**)-1-hydroxyethyl]-4-oxo-3H,4H-pyrido[2,3-d]pyrimidin-2-yl]-2-(3,5-difluorophenyl)ethyl]-2-[(2R*,4S*)-9-(difluoromethyl)-5,5-difluoro-7,8-diazatricyclo[4.3.0.0^2,4]nona-1(6),8-dien-7-yl]acetamide] | 0.027 | > 20 | –
CCNc1cc(C2CCC(F)(F)CC2)nc2nc([C@H](Cc3cc(F)cc(F)c3)NC(=O)Cn3nc(C4CC4)c4c3C[C@@H]3C[C@H]43)n(-c3ccc(Cl)c4c(NS(C)(=O)=O)nn(CCCOC)c34)c(=O)c12 (atropisomer, axis not shown; (P)) [Example 601, N-[(1S)-1-[(3P)-3-[4-chloro-3-methanesulfonamido-1-(3-methoxypropyl)-1H-indazol-7-yl]-7-(4,4-difluorocyclohexyl)-5-(ethylamino)-4-oxo-3H,4H-pyrido[2,3-d]pyrimidin-2-yl]-2-(3,5-difluorophenyl)ethyl]-2-[(2S,4S)-9-cyclopropyl-7,8-diazatricyclo[4.3.0.0^2,^4]nona-1(6),8-dien-7-yl]acetamide] | 0.008 | > 20 | –
COCCCn1nc(NS(C)(=O)=O)c2c(Cl)ccc(-n3c([C@H](Cc4cc(F)cc(F)c4)NC(=O)Cn4nc(C(F)F)c5c4C(F)(F)[C@@H]4C[C@H]54)nc4nc(C5CCC(F)(F)CC5)cc(NCCN5CCN(C(C)=O)CC5)c4c3=O)c21 (atropisomer, axis not shown; (P)) [Example 536, N-[(1S)-1-[(3P)-5-{[2-(4-acetylpiperazin-1-yl)ethyl]amino}-3-[4-chloro-3-methanesulfonamido-1-(3-methoxypropyl)-1H-indazol-7-yl]-7-(4,4-difluorocyclohexyl)-4-oxo-3H,4H-pyrido[2,3-d]pyrimidin-2-yl]-2-(3,5-difluorophenyl)ethyl]-2-[(2S,4R)-9-(difluoromethyl)-5,5-difluoro-7,8-diazatricyclo[4.3.0.0^2,^4]nona-1(6),8-dien-7-yl]acetamide] | 0.025 | > 20 | –
COCCCn1nc(NS(C)(=O)=O)c2c(Cl)ccc(-n3c([C@H](Cc4cc(F)cc(F)c4)NC(=O)Cn4nc(C(F)F)c5c4C(F)(F)[C@@H]4C[C@H]54)nc4nc(C5CCC(F)(F)CC5)cc(NCCN5CCOCC5)c4c3=O)c21 (atropisomer, axis not shown; (P)) [Example 430, N-[(1S)-1-[(3P)-3-[4-chloro-3-methanesulfonamido-1-(3-methoxypropyl)-1H-indazol-7-yl]-7-(4,4-difluorocyclohexyl)-5-{[2-(morpholin-4-yl)ethyl]amino}-4-oxo-3H,4H-pyrido[2,3-d]pyrimidin-2-yl]-2-(3,5-difluorophenyl)ethyl]-2-[(2S,4R)-9-(difluoromethyl)-5,5-difluoro-7,8-diazatricyclo[4.3.0.0^2,^4]nona-1(6),8-dien-7-yl]acetamide] | 0.011 | > 20 | –
CS(=O)(=O)Nc1nn(CCN2CCC(F)(F)C2)c2c(-n3c([C@H](Cc4cc(F)cc(F)c4)NC(=O)Cn4nc(C(F)F)c5c4C(F)(F)[C@@H]4C[C@H]54)nc4nc(C5CCC(F)(F)CC5)cc(C5CC5)c4c3=O)ccc(Cl)c12 (atropisomer, axis not shown; (P)) [Example 354, N-[(1S)-1-[(3P)-3-{4-chloro-1-[2-(3,3-difluoropyrrolidin-1-yl)ethyl]-3-methanesulfonamido-1H-indazol-7-yl}-5-cyclopropyl-7-(4,4-difluorocyclohexyl)-4-oxo-3H,4H-pyrido[2,3-d]pyrimidin-2-yl]-2-(3,5-difluorophenyl)ethyl]-2-[(2S,4R)-9-(difluoromethyl)-5,5-difluoro-7,8-diazatricyclo[4.3.0.0^2,^4]nona-1(6),8-dien-7-yl]acetamide] | 0.022 | > 50 | –
Cc1cc(C2(C)CCC(F)(F)CC2)nc2nc([C@H](Cc3cc(F)cc(F)c3)NC(=O)Cn3nc(C(F)F)c4c3C(F)(F)[C@@H]3C[C@H]43)n(-c3ccc(Cl)c4c(NS(C)(=O)=O)nn(CCN5C[C@H](F)C[C@H](F)C5)c34)c(=O)c12 (atropisomer, axis not shown; (P)) [Example 473, N-[(1S)-1-[(3P)-3-(4-chloro-1-{2-[(3R,5S)-3,5-difluoropiperidin-1-yl]ethyl}-3-methanesulfonamido-1H-indazol-7-yl)-7-(4,4-difluoro-1-methylcyclohexyl)-5-methyl-4-oxo-3H,4H-pyrido[2,3-d]pyrimidin-2-yl]-2-(3,5-difluorophenyl)ethyl]-2-[(2S,4R)-9-(difluoromethyl)-5,5-difluoro-7,8-diazatricyclo[4.3.0.0^2,^4]nona-1(6),8-dien-7-yl]acetamide] | 0.008 | > 20 | –
COCCCn1nc(NS(C)(=O)=O)c2c(Cl)ccc(-n3c([C@H](Cc4cc(F)cc(F)c4)NC(=O)Cn4nc(C(F)F)c5c4C(F)(F)[C@@H]4C[C@H]54)nc4nc(C5CCC(F)(F)CC5)cc(NCCN5CCC5)c4c3=O)c21 (atropisomer, axis not shown; (P)) [Example 500, N-[(1S)-1-[(3P)-5-{[2-(azetidin-1-yl)ethyl]amino}-3-[4-chloro-3-methanesulfonamido-1-(3-methoxypropyl)-1H-indazol-7-yl]-7-(4,4-difluorocyclohexyl)-4-oxo-3H,4H-pyrido[2,3-d]pyrimidin-2-yl]-2-(3,5-difluorophenyl)ethyl]-2-[(2S,4R)-9-(difluoromethyl)-5,5-difluoro-7,8-diazatricyclo[4.3.0.0^2,^4]nona-1(6),8-dien-7-yl]acetamide] | 0.049 | > 20 | –
